Experimental data from article PMC5508519 (Bioorganic & medicinal chemistry letters, 2017).

How the values were obtained:
hM4 = molecular target: T1, hM4 (Homo sapiens, UniProt P08173); assay: calcium mobilization assay, hM4 CHO cells co-transfected with Gqi5, ACh EC80; assay type: cell-based; conditions: SAR text on Table 2
T1 sequence (P08173 1-479): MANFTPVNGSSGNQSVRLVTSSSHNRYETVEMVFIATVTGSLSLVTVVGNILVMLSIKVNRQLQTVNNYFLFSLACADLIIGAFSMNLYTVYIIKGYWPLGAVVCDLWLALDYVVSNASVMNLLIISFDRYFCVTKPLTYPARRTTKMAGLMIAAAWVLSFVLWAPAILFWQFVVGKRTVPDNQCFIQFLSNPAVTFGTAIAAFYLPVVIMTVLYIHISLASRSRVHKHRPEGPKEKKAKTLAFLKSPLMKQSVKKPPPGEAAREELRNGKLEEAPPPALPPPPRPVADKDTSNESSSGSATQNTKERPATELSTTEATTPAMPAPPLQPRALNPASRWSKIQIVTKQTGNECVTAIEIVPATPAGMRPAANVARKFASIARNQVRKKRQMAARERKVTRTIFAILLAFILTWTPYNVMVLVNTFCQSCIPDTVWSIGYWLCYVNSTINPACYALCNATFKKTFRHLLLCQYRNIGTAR

[1] = predicted hepatic clearance from human microsomal CLint; assay type: in vitro ADME; conditions: based on CLint data from microsomes
M5 = molecular target: T2, M5 (Homo sapiens, UniProt P08912); assay: calcium mobilization assay, hM5 CHO cells, approximate EC80 of ACh; assay type: cell-based; conditions: n = 1
T2 sequence (P08912 1-532): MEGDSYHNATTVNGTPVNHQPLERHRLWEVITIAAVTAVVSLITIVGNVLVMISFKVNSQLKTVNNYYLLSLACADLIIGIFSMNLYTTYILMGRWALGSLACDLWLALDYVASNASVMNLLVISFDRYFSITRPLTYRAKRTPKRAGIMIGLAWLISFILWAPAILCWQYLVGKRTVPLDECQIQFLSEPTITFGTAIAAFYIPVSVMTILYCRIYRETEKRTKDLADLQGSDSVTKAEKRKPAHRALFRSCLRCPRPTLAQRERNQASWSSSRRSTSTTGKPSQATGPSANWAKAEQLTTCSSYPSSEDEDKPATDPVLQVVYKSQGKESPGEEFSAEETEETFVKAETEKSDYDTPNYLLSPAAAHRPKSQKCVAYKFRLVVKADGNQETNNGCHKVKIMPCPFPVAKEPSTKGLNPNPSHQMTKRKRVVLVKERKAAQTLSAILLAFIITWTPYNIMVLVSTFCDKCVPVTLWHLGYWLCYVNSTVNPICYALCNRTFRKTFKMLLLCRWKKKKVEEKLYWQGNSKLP

M1 = molecular target: T3, M1 (Homo sapiens, UniProt P11229); assay: calcium mobilization assay, hM1 CHO cells, approximate EC80 of ACh; assay type: cell-based; conditions: n = 1
T3 sequence (P11229 1-460): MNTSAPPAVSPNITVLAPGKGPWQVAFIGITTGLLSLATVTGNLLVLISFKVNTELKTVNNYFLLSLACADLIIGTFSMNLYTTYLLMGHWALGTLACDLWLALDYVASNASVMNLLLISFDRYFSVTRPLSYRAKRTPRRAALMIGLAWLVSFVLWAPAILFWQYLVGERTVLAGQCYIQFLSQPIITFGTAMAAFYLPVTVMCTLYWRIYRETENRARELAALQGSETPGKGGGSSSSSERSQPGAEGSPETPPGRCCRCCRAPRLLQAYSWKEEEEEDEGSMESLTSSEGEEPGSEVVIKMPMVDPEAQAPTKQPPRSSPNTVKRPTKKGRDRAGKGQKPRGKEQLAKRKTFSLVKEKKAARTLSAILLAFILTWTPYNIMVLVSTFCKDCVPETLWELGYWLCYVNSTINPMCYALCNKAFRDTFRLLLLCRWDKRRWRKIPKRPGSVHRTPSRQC

Row | SMILES | M4 inhibitory activity (in words) (hM4) | predicted hepatic clearance CLhep (rat) | predicted hepatic clearance CLhep (human) [1] | further results
1 | O=C(C1CCN(c2cc(Oc3ccc(F)cc3F)ncn2)CC1)N1CCC2CCCCC2C1 (stereo not shown) [Compound 17d] | retained M4 inhibitory activity | – | – | –
2 | CCc1ccc(Oc2cc(N3CCC(C(=O)N4CCc5ccccc5C4)CC3)ncn2)cc1 [Compound 5] | – | 68.6 mL/min/kg | 20.3 mL/min/kg | –
3 | COc1ccc2c(c1)CCN(C(=O)C1CCN(c3cc(Oc4ccc(F)cc4F)ncn3)CC1)C2 [Compound 17b] | retained M4 inhibitory activity | – | – | –
4 | COc1ccc2c(c1)CN(C(=O)C1CCN(c3cc(Oc4ccc(F)cc4F)ncn3)CC1)CC2 [Compound 17c] | retained M4 inhibitory activity | – | – | –
5 | O=C(C1CCN(c2cc(Oc3ccc(F)cc3F)ncn2)CC1)N1Cc2ccccc2C1 [Compound 17e, (1-(6-(2,4-difluorophenoxy)pyrimidin-4-yl)piperidin-4-yl)(isoindolin-2-yl)methanone] | – | 36.5 mL/min/kg | 5.56 mL/min/kg | M5 % ACh Min (M5): 42.6 % ACh Min; M1 % ACh Min (M1): 18.2 % ACh Min; predicted CLhep with inclusion of binding terms in the well-stirred model (rat): 5.93 mL/min/kg
